Measurements: patent publication US7572765B2, “Conformationally constrained parathyroid hormone (PTH) analogs” (The General Hospital Corporation, priority 2001, dated 2009)
Square brackets hold non-standard residues; d marks the D form. Peptide text beside a SMILES is read from it. hArg = N=C(N)NCCCC[C@H](N)C(=O)O; Aib = CC(C)(N)C(=O)O

Legend:
human P1R = target: T1, human P1R (Homo sapiens, UniProt Q03431); test: cAMP stimulation in HKRK-B28 cells; assay type: cell-based; conditions: basal 4.0 ± 0.1 pmole/well not subtracted
T1 construct: expressed in transfected cells; host or cells: HKRK-B28 (porcine kidney LLC-PK1, stably transfected)
T1 sequence (Q03431 27-593): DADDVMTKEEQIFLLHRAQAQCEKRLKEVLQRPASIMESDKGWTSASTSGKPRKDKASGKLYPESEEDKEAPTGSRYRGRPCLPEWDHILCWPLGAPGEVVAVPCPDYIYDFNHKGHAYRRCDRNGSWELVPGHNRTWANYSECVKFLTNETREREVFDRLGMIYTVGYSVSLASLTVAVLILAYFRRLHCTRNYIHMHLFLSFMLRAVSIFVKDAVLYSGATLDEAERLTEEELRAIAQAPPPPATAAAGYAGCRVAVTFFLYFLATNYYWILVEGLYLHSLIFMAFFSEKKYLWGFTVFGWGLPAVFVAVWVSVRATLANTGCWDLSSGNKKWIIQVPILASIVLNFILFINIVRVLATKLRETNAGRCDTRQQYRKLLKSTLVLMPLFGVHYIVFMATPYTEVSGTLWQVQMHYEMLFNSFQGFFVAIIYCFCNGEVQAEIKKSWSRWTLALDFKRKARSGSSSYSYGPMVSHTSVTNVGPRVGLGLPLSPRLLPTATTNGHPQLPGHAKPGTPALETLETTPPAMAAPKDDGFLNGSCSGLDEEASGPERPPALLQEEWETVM
Experimental: Cell Culture. The cell line HKRK-B28 (Takasu, H., et al., J. Bone Miner. Res. 14:11-20 (1999)) was derived from the porcine kidney cell line, LLC-PK1 by stable transfection with plasmid DNA encoding the human P1R and expresses ˜280,000 receptors per cell. These cells, as well as COS-7 cells and SaOS-2-B10 cells, were cultured at […] in T-75 flasks ([…]) in Dulbecco's modified Eagle's medium (DMEM) supplemented with fetal bovine serum (10%), penicillin G (20 units/ml), streptomycin sulfate (20 μg/ml) and amphotericin B (0.05 μg/ml) in a humidified atmosphere containing 5% CO2. Stock solutions of EGTA/trypsin and antibiotics were from GIBCO; fetal bovine serum was from Hyclone Laboratories (Logan, Utah). COS-7 cells sub-cultured in 24-well plates were transfected with plasmid DNA (200 ng per well) encoding the wild-type human P1R or truncated human P1R deleted for residues (24-181) (Shimizu, M., et al., J. Biol. Chem. 275:21836-21843 (2000)) that was purified by cesium chloride/ethidium bromide density gradient centrifugation, and FuGENE 6 transfection reagent (Roche Indianapolis Ind.) according to the manufacturer's recommended procedure. All cells, in 24-well plates, were treated with fresh media and shifted to 33° C. for 12 to 24 h prior to assay.
cAMP Stimulation. Stimulation of cells with peptide analogs was performed in 24-well plates. Cells were rinsed with 0.5 mL of binding buffer (50 mM Tris-HCI, […], 5 mM KCl, 2 mM CaCl2, 5% heat-inactivated horse serum, 0.5% fetal bovine serum, adjusted to pH 7.5 with HCl) and treated with 200 μL of cAMP assay buffer (Delbecco's modified Eagle's medium containing 2 mM 3-isobutyl-1-methylxanthine, 1 mg/mL bovine serum albumin, 35 mM Hepes-NaOH, pH 7.4) and 100 μL of binding buffer containing varying amounts of peptide analog (final volume=300 μL). The medium was removed after incubation for 30 to 60 minutes at room temperature, and the cells were frozen on dry ice, lysed with 0.5 mL 50 mM HCl, and refrozen ([…]). The cAMP content of the diluted lysate was determined by radioimmunoassay. The EC50 response values were calculated using nonlinear regression (see below).
Data Calculation. Calculations were performed using Microsoft® Excel. Nonlinear regression analyses of binding and cAMP dose-response data were performed using the four-parameter equation: yp=Min+[(Max−Min)/(1+(IC50/x)^slope)]. The Excel Solver function was utilized for parameter optimization, as described previously (Carter, P. H., et al., Endocrinology 140: 4972-4981 (1999); Bowen, W. P., and Jerman, J. C., Trends in Pharmacol. Sci. 16: 413-417 (1995)). Differences between paired data sets were statistically evaluated using a one-tailed Student's t-test, assuming unequal variances for the two sets.

[1] = Circular dichroism spectroscopy (helical content); assay type: physicochemical
Experimental: Circular Dichroism. Circular Dichroism spectra were recorded on a Jasco model 710 spectropolarimeter; peptides were analyzed at a concentration of20 μM in 50 mM sodium phosphate buffer pH 7.4, or the same buffer containing 2,2,2-trifluoroethanol at 20% (v/v). Spectroscopic scans were preformed at 20° C. and at wavelengths between […], with data recored at each 1 nM interval. The spectral bandwidth was 1.5 nM and 8 scans were accumulated and averaged for each sample. At each wavelength, the mean residue elipticity [θ×100/l×C×n); where θ is the raw elipticity value (in dimensions of millidegree), l is the sample path length, C=is the molar peptide concentration, and n is the number of residues in the peptide (Bowen, W. P., and Jerman, J. C., Trends in Pharmacol. Sci. 16: 413-417 (1995)). The helical content of each peptide was estimated by dividing [θ] observed at 222 nM for that peptide by −28,100, which is the reported [θ]222obs for a model helical decapeptide (Bowen, W. P., and Jerman, J. C., Trends in Pharmacol. Sci. 16: 413-417 (1995)).
Circular dichroism (CD) spectroscopy was used to analyze the potential effects that the Aib substitutions had on peptide secondary structure when the peptides were free in solution. Samples were analyzed in both aqueous phosphate buffer and in phosphate buffer containing 2,2,2-trifloroethanol, an organic solvent which promotes helical structure in oligopeptides, including PTH peptide fragments (Pellegrini, M., et al., J. Biol. Chem. 273:10420-10427 (1998); Gronwald, W., et al., Biol. Chem. Hoppe Seyler 377:175-186 (1996); Barden, J. A., and Kemp, B. E., Biochemistry 32:7126-7132 (1993)). In phosphate buffer, the helical content of each peptide, estimated from the elipticity observed at 222 nM, was small (≦16%); however, [Aib^1,3,M]PTH(1-14) contained nearly twice as much helix as did [M]PTH(1-14) (16% and 8.1% respectively), as did [Aib^1,3,M]PTH(1-1l), as compared to […] (13% and 7.5% respectively, Table 4). […] The higher helical contents of these two peptides were evident not only from the negative elipticities at […] and 222 nM, but also from the positive elipticities at 192 nM (FIG. 6).

Compound | cAMP EMax(obs.) (human P1R) [pmole/well] | other results
CC[C@H](C)[C@H](NC(=O)[C@H](CCC(=O)O)NC(=O)[C@H](C)NC(=O)[C@@H](NC(=O)[C@H](C)N)C(C)C)C(=O)N[C@@H](CCC(N)=O)C(=O)N[C@@H](CC(C)C)C(=O)N[C@@H](CCSC)C(=O)N[C@@H](Cc1c[nH]cn1)C(=O)N[C@@H](CCC(N)=O)C(=O)N[C@@H](CCCCNC(=N)N)C(=O)NC(C)(C)C(=O)N[C@@H](CCCCN)C(=O)N[C@@H](Cc1c[nH]c2ccccc12)C(N)=O [Aib-12] (H-AVAEIQLMHQ[hArg][Aib]KW-NH2) | 263 ± 9 | 
CC[C@H](C)[C@H](NC(=O)[C@H](CCC(=O)O)NC(=O)[C@H](C)NC(=O)[C@@H](NC(=O)[C@H](C)N)C(C)C)C(=O)N[C@@H](CCC(N)=O)C(=O)N[C@@H](CC(C)C)C(=O)N[C@@H](CCSC)C(=O)N[C@@H](Cc1c[nH]cn1)C(=O)NC(C)(C)C(=O)N[C@@H](CCCCNC(=N)N)C(=O)N[C@@H](C)C(=O)N[C@@H](CCCCN)C(=O)N[C@@H](Cc1c[nH]c2ccccc12)C(N)=O [Aib-10] (H-AVAEIQLMH[Aib][hArg]AKW-NH2) | 214 ± 22 | 
CC[C@H](C)[C@H](NC(=O)[C@H](CCC(=O)O)NC(=O)[C@H](C)NC(=O)[C@@H](NC(=O)[C@H](C)N)C(C)C)C(=O)N[C@@H](CCC(N)=O)C(=O)N[C@@H](CC(C)C)C(=O)N[C@@H](CCSC)C(=O)N[C@@H](Cc1c[nH]cn1)C(=O)N[C@@H](CCC(N)=O)C(=O)N[C@@H](CCCCNC(=N)N)C(=O)N[C@@H](C)C(=O)NC(C)(C)C(=O)N[C@@H](Cc1c[nH]c2ccccc12)C(N)=O [Aib-13] (H-AVAEIQLMHQ[hArg]A[Aib]W-NH2) | 259 ± 10 | 
PTH(1-11): unmodified N-terminal PTH(1-11) peptide (SVSEIQLMHNL; Parathyroid hormone; UniProt P01270 32-42, looked up, fragment) |  | [0]222obs × 10^−3, Phos. ([1]; 20 μM peptide, 50 mM phosphate buffer pH 7.4): −1.8; [0]222obs × 10^−3, Phos + TFE ([1]; 20 μM peptide, 50 mM phosphate buffer with trifluoroethanol (20%)): −8.4; helical residues (%), Phos + TFE ([1]; 50 mM phosphate buffer with trifluoroethanol (20%), from elipticity at 222 nM): 30%; helical residues (%), Phos. ([1]; 50 mM phosphate buffer, from elipticity at 222 nM): 6.5%
CC[C@H](C)[C@H](NC(=O)[C@H](CCC(=O)O)NC(=O)[C@H](C)NC(=O)[C@@H](NC(=O)[C@H](C)N)C(C)C)C(=O)N[C@@H](CCC(N)=O)C(=O)NC(C)(C)C(=O)N[C@@H](CCSC)C(=O)N[C@@H](Cc1c[nH]cn1)C(=O)N[C@@H](CCC(N)=O)C(=O)N[C@@H](CCCCNC(=N)N)C(=O)N[C@@H](C)C(=O)N[C@@H](CCCCN)C(=O)N[C@@H](Cc1c[nH]c2ccccc12)C(N)=O [Aib-7] (H-AVAEIQ[Aib]MHQ[hArg]AKW-NH2) | 275 ± 8 | 
CC[C@H](C)[C@H](NC(=O)[C@H](CCC(=O)O)NC(=O)[C@H](C)NC(=O)[C@@H](NC(=O)[C@H](C)N)C(C)C)C(=O)NC(C)(C)C(=O)N[C@@H](CC(C)C)C(=O)N[C@@H](CCSC)C(=O)N[C@@H](Cc1c[nH]cn1)C(=O)N[C@@H](CCC(N)=O)C(=O)N[C@@H](CCCCNC(=N)N)C(=O)N[C@@H](C)C(=O)N[C@@H](CCCCN)C(=O)N[C@@H](Cc1c[nH]c2ccccc12)C(N)=O [Aib-6] (H-AVAEI[Aib]LMHQ[hArg]AKW-NH2) | 116 ± 12 | 
CC[C@H](C)[C@H](NC(=O)[C@H](CCC(=O)O)NC(=O)[C@H](C)NC(=O)C(C)(C)NC(=O)[C@H](C)N)C(=O)N[C@@H](CCC(N)=O)C(=O)N[C@@H](CC(C)C)C(=O)N[C@@H](CCSC)C(=O)N[C@@H](Cc1c[nH]cn1)C(=O)N[C@@H](CCC(N)=O)C(=O)N[C@@H](CCCCNC(=N)N)C(=O)N[C@@H](C)C(=O)N[C@@H](CCCCN)C(=O)N[C@@H](Cc1c[nH]c2ccccc12)C(N)=O [Aib-2] (H-A[Aib]AEIQLMHQ[hArg]AKW-NH2) | 168 ± 6 | 
CC[C@H](C)[C@H](NC(=O)C(C)(C)NC(=O)[C@H](C)NC(=O)[C@@H](NC(=O)[C@H](C)N)C(C)C)C(=O)N[C@@H](CCC(N)=O)C(=O)N[C@@H](CC(C)C)C(=O)N[C@@H](CCSC)C(=O)N[C@@H](Cc1c[nH]cn1)C(=O)N[C@@H](CCC(N)=O)C(=O)N[C@@H](CCCCNC(=N)N)C(=O)N[C@@H](C)C(=O)N[C@@H](CCCCN)C(=O)N[C@@H](Cc1c[nH]c2ccccc12)C(N)=O [Aib-4] (H-AVA[Aib]IQLMHQ[hArg]AKW-NH2) | 221 ± 10 | 
CC[C@H](C)[C@H](NC(=O)[C@H](CCC(=O)O)NC(=O)[C@H](C)NC(=O)[C@@H](NC(=O)[C@H](C)N)C(C)C)C(=O)N[C@@H](CCC(N)=O)C(=O)N[C@@H](CC(C)C)C(=O)N[C@@H](CCSC)C(=O)N[C@@H](Cc1c[nH]cn1)C(=O)N[C@@H](CCC(N)=O)C(=O)N[C@@H](CCCCNC(=N)N)C(=O)N[C@@H](C)C(=O)N[C@@H](CCCCN)C(=O)NC(C)(C)C(N)=O [Aib-14] (H-AVAEIQLMHQ[hArg]AK[Aib]-NH2) | 273 ± 6 | 
